Experimental data from patent US20040157818A1, “Cxcr4-antagonistic drugs composed of nitrogen-containing compound” (priority 2001, published 2004).

target: T1, CXCR4 (Homo sapiens, UniProt P61073); test: CXCR4-binding inhibition activity (125I-SDF-1α binding to MT-4 cells); conditions: 0.1 μM test material, ligand 125I-SDF-1α, 2 hours under ice cold condition
T1 construct: endogenous in cells; host or cells: MT-4 cells
Procedure: CXCR4-Binding Inhibition Activity
MT-4 cells (5×10^6/0.2 ml/well) were cultured on a 24-well microtiter plate. After the cells were incubated for 24 hours at 37° C. in a carbon dioxide gas incubator, a culture mediumwas replaced with a buffer solution (RPMI-1640 containing 0.1% BSA). Together with a ligand ^125I-SDF-1α (specific activity: 2,2000 Ci/mmol; DAIICHI PURE CHEMICALS CO. ,LTD. (Tokyo)), various concentrations of test materials were subjected to a binding reaction for 2 hours under ice cold condition.

T1 sequence (P61073 whole entry): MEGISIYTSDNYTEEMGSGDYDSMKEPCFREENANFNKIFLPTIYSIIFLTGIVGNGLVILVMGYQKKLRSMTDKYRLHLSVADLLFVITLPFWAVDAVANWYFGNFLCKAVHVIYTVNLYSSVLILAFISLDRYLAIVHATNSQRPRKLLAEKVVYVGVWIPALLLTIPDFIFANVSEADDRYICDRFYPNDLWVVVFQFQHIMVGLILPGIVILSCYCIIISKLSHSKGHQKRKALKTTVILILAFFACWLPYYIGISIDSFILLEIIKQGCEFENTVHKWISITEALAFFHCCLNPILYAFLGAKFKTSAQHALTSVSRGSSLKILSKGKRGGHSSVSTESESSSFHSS

| Structure (SMILES) | inhibition rate (binding-inhibition % at 0.1 μM) [%] |
| --- | --- |
| Cn1ccnc1CNCCC[C@H](NC(=O)c1ccc(CNCc2nccn2C)c2ccccc12)C(=O)NCc1cccc2ccccc12 [Compound No. 29, (S)-2-(4-((1-methylimidazol-2-ylmethyl)aminomethyl)naphthoylamino)-5-((1-methylimidazol-2-ylmethyl)amino)valerate 1-naphthalenemethylamide] | 56.8 |
| O=C(N[C@@H](CCCNC1CCCc2cccnc21)C(=O)NCc1cccc2ccccc12)c1ccc(CNc2ccccn2)c2ccccc12 (stereo partly drawn) [Compound No. 104, (2S)-2-(4-(2-pyridyl)aminomethylnaphthalene-1-carbonyl)anmino-5-(5,6,7,8-tetrahydroquinolin-8-yl)amino valerate 1-naphthylmethylamide] | 40.6 |
| NC(N)=NCCC[C@H](NC(=O)c1ccc(CNCc2ccccn2)cc1)C(=O)NCc1cccc2ccccc12 [Compound No. 43, N^α-(4-(N-2-picolylaminomethyl)benzoyl)-L-arginine 1-naphthalenemethylamide] | 43.6 |
| O=C(N[C@@H](CCCN[C@H]1CCCc2cccnc21)C(=O)NCc1cccc2ccccc12)c1ccc(CNCc2ccccn2)c2ccccc12 [Compound No. 105, (2S)-2-(4-(N-2-picolylaminomethyl)naphthalene-1-carbonyl)amino-5-((8S)-5,6,7,8-tetrahydroquinolin-8-yl)amino valerate 1-naphthylmethylamide] | 91.9 |
| O=C(N[C@@H](CCNCc1ccccn1)C(=O)NCc1cccc2ccccc12)c1ccc(CNCc2ccccn2)cc1 [Compound No. 61, (S)-2-(4-(N-2-picolylamino)methylbenzoylamino)-4-(N-2-picolylamino)lactate 1-naphthalenemethylamide] | 32.9 |
| Cn1cccc1CNCCC[C@H](NC(=O)c1ccc(CNCc2nccn2C)cc1)C(=O)NCc1cccc2ccccc12 [Compound No. 30, (S)-2-(4-((1-methylimidazol-2-ylmethyl)aminomethyl)benzoylamino)-5-((1-methylpyrrol-2-ylmethyl)amino)valerate 1-naphthalenemethylamide] | 60.9 |
| O=C(N[C@@H](CCCN[C@@H]1CCCc2cccnc21)C(=O)NCc1cccc2ccccc12)c1ccc(CNCc2ccccn2)c2ccccc12 [Compound No. 55, (2S)-2-(4-(N-2-picolylaminomethyl)naphthoylamino)-5-((8R)-5,6,7,8-tetrahydroquinolin-8-ylamino)valerate 1-naphthalenemethylamide] | 94.6 |
| C[C@H](NC(=O)[C@H](CCCNC1CCCc2cccnc21)NC(=O)c1ccc(CNCc2ccccn2)cc1)c1cccc2ccccc12 (stereo partly drawn) [Compound No. 91, (2S)-2-(4-(N-2-picolylaminomethyl)benzoyl)amino-5-(5,6,7,8-tetrahydroquinolin-8-yl)amino valerate(1′S)-1′-(1-naphthyl)ethylamide] | 94.0 |
| C[C@H](NC(=O)[C@H](CCCNC1CCCc2cccnc21)NC(=O)c1ccc(CNCc2ccccn2)nc1)c1cccc2ccccc12 (stereo partly drawn) [Compound No. 83, (2S)-2-(2-(N-2-picolylaminomethyl)pyridin-5-ylcarbonyl)amino-5-(5,6,7,8-tetrahydroquinolin-8-yl)amino valerate(1′S)-1′-(1-naphthyl)ethylamide] | 78.0 |
| N=C(N)NCCC[C@H](NC(=O)c1ccc(CNCc2ncc[nH]2)cc1)C(=O)NCc1cccc2ccccc12 [Compound No. 53, N^α-(4-((imidazol-2-ylmethyl)aminomethyl)benzoyl)-L-arginine 1-naphthalenemethylamide] | 71.5 |
| C[C@H](NC(=O)[C@H](CCCNCc1nccn1C)NC(=O)c1ccc(CNCc2nccn2C)c2ccccc12)c1cccc2ccccc12 [Compound No. 87] | 57.9 |
| O=C(N[C@@H](CCCNCc1ncc[nH]1)C(=O)NCc1cccc2ccccc12)c1ccc(CNCc2ncc[nH]2)c2ccccc12 [Compound No. 28, (S)-2-(4-((imidazol-2-ylmethyl)aminomethyl)naphthoylamino)-5-((imidazol-2-ylmethyl)amino)valerate 1-naphthalenemethylamide] | 78.1 |
| N=C(N)NCCC[C@H](NC(=O)c1ccc(CNCc2ccccn2)c2ccccc12)C(=O)NCc1cccc2ccccc12 [Compound No. 44, N^α-(4-(N-2-picolylaminomethyl)naphthoyl)-L-arginine 1-naphthalenemethylamide] | 88.1 |
| C[C@@H](NC(=O)[C@H](CCCNC1CCCc2cccnc21)NC(=O)c1ccc(CNCc2ncc[nH]2)c2ccccc12)c1cccc2ccccc12 (stereo partly shown) [Compound No. 59] | 86.0 |
| O=C(N[C@@H](CCCNCc1ccccn1)C(=O)NCc1cccc2ccccc12)c1ccc(CNCc2ccccn2)c2ccccc12 [Compound No. 27, (S)-2-(4-(N-2-picolylaminomethyl)naphthoylamino)-5-(2-picolylamino)valerate 1-naphthalenemethylamide] | 82.1 |
| O=C(N[C@@H](CCCNC1CCCc2cccnc21)C(=O)NCc1cccc2ccccc12)c1ccc(CNCc2ncc[nH]2)s1 (stereo partly shown) [Compound No. 16] | 75.3 |
| O=C(N[C@@H](CCCNC1CCCc2cccnc21)C(=O)NCc1cccc2ccccc12)c1ccc(CNCc2ccccn2)c2ccccc12 (stereo partly drawn) [Compound No. 38, (2S)-2-(4-(N-2-picolylaminomethyl)naphthoylamino)-5-(5,6,7,8-tetrahydroquinolin-8-ylamino)valerate 1-naphthalenemethylamide] | 90.0 |
| O=C(N[C@@H](CCCNCc1ccccn1)C(=O)NCc1cccc2ccccc12)c1ccc(CNCc2ccccn2)cc1 [Compound No. 60, (S)-2-(4-(N-2-picolylaminomethyl)benzoylamino)-5-(N-2-picolylamino)valerate 1-naphthalenemethylamide] | 16.8 |
| C[C@H](NC(=O)[C@H](CCCNC1=NCCCN1)NC(=O)c1ccc(CNCc2ncc[nH]2)cc1)c1cccc2ccccc12 [Compound No. 112, (S)-2-(4-((N-imidazol-2-ylmethyl)aminomethyl)benzoyl)amino-5-(3,4,5,6-tetrahydropyrimidin-2-yl)amino valerate(1′S)-1′-(1-naphthyl)ethylamide] | 84.2 |
| C[C@H](NC(=O)[C@H](CCCNCc1ccccn1)NC(=O)c1ccc(CNCc2ncc[nH]2)c2ccccc12)c1cccc2ccccc12 [Compound No. 56] | 69.9 |
| N=C(N)NCCC[C@H](NC(=O)c1ccc(CNCc2ncc[nH]2)c2ccccc12)C(=O)NCc1cccc2ccccc12 [Compound No. 45, N^α-(4-((N-imidazol-2-ylmethyl)aminomethyl)naphthoyl)-L-arginine 1-naphthalenemethylamide] | 95.8 |
| O=C(N[C@@H](CCCNC1CCCc2cccnc21)C(=O)NCc1cccc2ccccc12)c1ccc(CNC2CCCc3cccnc32)cc1 (stereo partly drawn) [Compound No. 64, (2S)-2-(4-((5,6,7,8-tetrahydroquinolin-8-yl)aminomethyl)benzoylamino)-5-((5,6,7,8-tetrahydroquinolin-8-yl)amino)valerate 1-naphthalenemethylamide] | 51.6 |
| C[C@H](NC(=O)[C@H](CCCNC1CCCc2cccnc21)NC(=O)c1ccc(CNCc2ccccn2)c2ccccc12)c1cccc2ccccc12 (stereo partly drawn) [Compound No. 85, (2S)-2-(4-(N-2-picolylaminomethyl)naphthoyl)amino-5-(5,6,7,8-tetrahydroquinolin-8-yl)amino valerate(1′S)-1′-(1-naphthyl)-ethylamide] | 90.7 |
| O=C(N[C@@H](CCCNC1CCCc2cccnc21)C(=O)NCCc1c[nH]c2ccccc12)c1ccc(CNCc2ncc[nH]2)c2ccccc12 (stereo partly drawn) [Compound No. 19, (2S)-2-(4-((N-imidazol-2-ylmethyl)aminomethyl)naphthoylamino)-5-(5,6,7,8-tetrahydroquinolin-8-ylamino)2-(3-indolyl)ethylamide valerate] | 73.8 |
| O=C(N[C@@H](CCCNCc1ncc[nH]1)C(=O)NCc1cccc2ccccc12)c1ccc(CNCc2ncc[nH]2)cc1 [Compound No. 21, (S)-2-(4-((imidazol-2-ylmethyl)aminomethyl)benzoylamino)-5-((imidazol-2-ylmethyl)amino)valerate 1-naphthalenemethylamide] | 12.8 |
| O=C(N[C@@H](CCCNCc1ccccn1)C(=O)NCc1cccc2ccccc12)c1ccc(CNCc2ncc[nH]2)c2ccccc12 [Compound No. 40, (S)-2-(4-((N-imidazol-2-ylmethyl)aminomethyl)naphthoylamino)-5-(2-picolylamino)valerate 1-naphthalenemethylamide] | 85.3 |
| C[C@@H](NC(=O)[C@H](CCCNCc1ccccn1)NC(=O)c1ccc(CNCc2ncc[nH]2)c2ccccc12)c1cccc2ccccc12 [Compound No. 58] | 52.0 |
| Cn1cccc1CNCCC[C@H](NC(=O)c1ccc(CNCc2ccccn2)cc1)C(=O)NCc1cccc2ccccc12 [Compound No. 5, (S)-2-(4-(N-2-picolylaminomethyl)benzoylamino)-5-((1-methylpyrrol-2-ylmethyl)amino)valerate 1-naphthalenemethylamide] | 26.4 |
